Laboratory results from ChEMBL document CHEMBL1148588, “Anthrax lethal factor protease inhibitors: synthesis, SAR, and structure-based 3D QSAR studies” (J Med Chem, 2006).

Target: T1, Lethal factor (Bacillus anthracis, UniProt P15917)
T1 sequence (P15917 whole entry): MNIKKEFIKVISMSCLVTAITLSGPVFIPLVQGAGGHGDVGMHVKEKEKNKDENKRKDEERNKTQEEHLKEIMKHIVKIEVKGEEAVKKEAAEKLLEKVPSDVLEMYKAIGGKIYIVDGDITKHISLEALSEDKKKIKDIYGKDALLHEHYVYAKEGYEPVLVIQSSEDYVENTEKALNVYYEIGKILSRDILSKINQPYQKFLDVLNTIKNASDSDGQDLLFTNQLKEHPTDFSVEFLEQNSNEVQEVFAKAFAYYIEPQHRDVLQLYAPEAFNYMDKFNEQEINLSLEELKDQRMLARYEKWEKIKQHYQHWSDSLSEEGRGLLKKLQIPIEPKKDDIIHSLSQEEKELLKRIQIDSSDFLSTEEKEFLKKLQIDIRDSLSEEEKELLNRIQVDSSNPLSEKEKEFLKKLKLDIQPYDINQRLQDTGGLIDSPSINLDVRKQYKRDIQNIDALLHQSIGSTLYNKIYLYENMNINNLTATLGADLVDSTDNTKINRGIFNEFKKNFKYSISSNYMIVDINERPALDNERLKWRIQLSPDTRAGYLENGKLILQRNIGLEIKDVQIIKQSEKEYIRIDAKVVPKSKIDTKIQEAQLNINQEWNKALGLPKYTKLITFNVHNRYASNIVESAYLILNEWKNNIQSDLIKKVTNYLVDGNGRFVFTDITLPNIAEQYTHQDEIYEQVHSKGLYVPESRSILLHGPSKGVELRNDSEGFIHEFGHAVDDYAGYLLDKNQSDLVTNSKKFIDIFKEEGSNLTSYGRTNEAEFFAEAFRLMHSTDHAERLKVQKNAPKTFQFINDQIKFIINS
Assay: Inhibitory activity against anthrax lethal factor metalloprotease

SMILES	IC50 [µM]	Log IC50
O=C(O)CN1C(=O)/C(=C/c2ccc(-c3ccc(I)cc3)o2)SC1=S	5.6	
CN1/C(=C/c2ccc(-c3ccc(Cl)cc3)o2)C(=O)NC1NC(=O)O (stereo not given)	> 100	> -4
O=C(O)CN1C(=O)S/C(=C\c2ccc(-c3ccc(Cl)cc3[N+](=O)[O-])o2)C1=O	0.5	
O=C(O)CN1C(=O)S/C(=C\c2ccc(-c3cc(C(F)(F)F)ccc3Cl)o2)C1=O	5.9	
